The subject of one assay is tumor. Details: method as in PMID 38197882. The settings on record: subcutaneous administration once a day for 22 days; cited from earlier work.
Another assay concerns AGS. The note with it: Figure 1; cited from earlier work.
Assay [1] has as its system AsPc-1. The note with it: Figure 1, cited from earlier work.
In another assay the test system is Panc1 (G12D). As to the kind of experiment: CCK-8 cell proliferation assay, Panc1 cells. The format is cell-based, human. The settings on record: for IC50: Homo sapiens, PANC-1, Panc1 cells, KRAS-G12D, CCK-8; for selectivity index (SI): Panc1 (G12D) over wild-type cells, fold. The text has this:
(§1) It has been reported that Panc1 is a KRAS-G12D-mutated human pancreatic cell and that A549 is a KRAS WT cell; meanwhile, HCT116 cells carry the KRAS-G13D mutation. Therefore, we used these cell lines to analyze the compounds’ anticancer activity and selectivity.
Background: Formazan colour is commonly taken as a measure of viable cells.

In a further assay the test system is A549 (WT). As to the kind of experiment: CCK-8 cell proliferation assay, A549 cells. It is filed as cell-based. The note with it: Homo sapiens, KRAS wild-type.
Description: as §1

For the next assay, the system named is HCT116 (G13D). As to the kind of experiment: CCK-8 cell proliferation assay, HCT116 cells. It is filed as cell-based. The note with it: Homo sapiens, HCT-116, KRAS-G13D.
Description: as §1

Another assay deals with Panc-1. The settings on record: Figure 1; cited from earlier work.
Another assay relates to CT26. Details: method as in PMID 35276423. The settings on record: Figure 1; cited from earlier work.
Another assay has as its system AGS (G12D). The assay can be described thus: CCK-8 cell proliferation assay, AGS cells. It is filed as cell-based. The settings on record: Homo sapiens, KRAS-G12D, antiproliferative. The method, then:
as §1
(§2) After we obtained 26a and 26b, cell proliferation experiments were conducted using cell lines carrying KRAS-G12D mutations, and the results are shown in Table 2. […] In the future, more types of linkers can be designed to adjust the lipophilic–hydrophilic balance coefficient of the molecule to optimize its membrane permeability and protein degradation ability. In addition, it should be acknowledged that only two cancer cell lines were selected for testing in this experiment, which is insufficient to comprehensively evaluate these PROTACs. This is also one of the limitations of this experiment.

Another assay relates to Panc 04.03. The note with it: Figure 1; cited from earlier work.
The subject of assay [2] is ASPC-1. The assay can be described thus: Cell proliferation assay, ASPC-1 cells. It is filed as cell-based. The settings on record: Homo sapiens, ASPC1, KRAS-G12D, antiproliferative. The method, then:
as §2

In another assay the target is KRAS-G12D (Homo sapiens, UniProt P01116, G12D). As to the kind of experiment: KRAS-G12D enzyme inhibition assay (GTPase activity assay).
Another assay deals with KC. Set-up: method as in PMID 35075146. The note with it: Figure 1; cited from earlier work.
The mark [3] stands for this setting: KRAS-G12D inhibition IC50, enzymatic inhibition.

The values below come from PMC12114952, “Design, Synthesis, Anticancer Evaluation and Molecular Docking of Pyrimidine, Pyrido[4,3-d]pyrimidine and 5,6,7,8-Tetrahydropyrido[3,4-d]pyrimidine Derivatives as Novel KRAS-G12D Inhibitors and PROTACs” (Pharmaceuticals, 2025).

Usually IC50 stands for the midpoint of a concentration-inhibition curve.

Structures are written as SMILES. Where two headings read alike, the source gives them in different places.

Sequence of KRAS-G12D (P01116 1-188 isoform P01116-2 G12D): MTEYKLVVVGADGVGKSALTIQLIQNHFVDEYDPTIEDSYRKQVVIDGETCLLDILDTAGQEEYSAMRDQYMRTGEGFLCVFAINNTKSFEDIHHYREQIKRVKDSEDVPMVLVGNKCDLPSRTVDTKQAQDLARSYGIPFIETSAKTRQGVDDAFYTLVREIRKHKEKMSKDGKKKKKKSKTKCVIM

Regarding `CCc1c(F)ccc2cc(O)cc(-c3ncc4c(N5CC6CCC(C5)N6)nc(OC[C@@H]5CCCN5CCCCOCC(=O)N[C@H](C(=O)N5C[C@H](O)C[C@H]5C(=O)N[C@@H](C)c5ccc(-c6scnc6C)cc5)C(C)(C)C)nc4c3F)c12` [Compound 8o], the tumor inhibition rate with tumor is reported as 68.6%. For the same molecule, the IC50 is 31 nM in the assay with AGS and 60 nM in the assay on AsPc-1 [1].
With `N#Cc1c(N)sc2c(F)ccc(-c3c(C(F)(F)F)cc4c(N5CC6CCC(C5)N6)nc(OC[C@@]56CCCN5C[C@H](F)C6)nc4c3F)c12` [ERAS-5024], the IC50 in the assay on AsPc-1 [1] (3D, CTG) was 4 nM.
For the molecule `CN1CCCN(c2nc3c(c(N4CC(N)C4)n2)CCN(C(=O)c2ccc(F)c4ccccc24)C3)CC1` [Compound 10a, (4-(3-Aminoazetidin-1-yl)-2-(4-methyl-1,4-diazepan-1-yl)-5,8-dihydropyrido[3,4-d]pyrimidin-7(6H)-yl)(4-fluoronaphthalen-1-yl)methanone], the concentration for half-maximal inhibition (IC50) in the assay on Panc1 (G12D) was 6.17 ± 0.2 µM; in the assay on A549 (WT) it was above 20 µM; with HCT116 (G13D), 12.6 ± 1.01 µM.
The corresponding values for `CN1CCCN(c2nc3c(c(N4CCNCC4CO)n2)CCN(C(=O)c2ccc(F)c4ccccc24)C3)CC1` (centres unmarked) [Compound 10d, (4-Fluoronaphthalen-1-yl)(4-(2-(hydroxymethyl)piperazin-1-yl)-2-(4-methyl-1,4-diazepan-1-yl)-5,8-dihydropyrido[3,4-d]pyrimidin-7(6H)-yl)methanone] are above 20 µM, 7.48 ± 0.19 µM and above 20 µM.
The corresponding values for `O=C(c1ccc(F)c2ccccc12)N1CCc2c(nc(N3CCN4CCC3CC4)nc2N2CCN3CCC2CC3)C1` [Compound 10g, (2,4-Di(1,4-diazabicyclo[3.2.2]nonan-4-yl)-5,8-dihydropyrido[3,4-d]pyrimidin-7(6H)-yl)(4-fluoronaphthalen-1-yl)methanone] are 5.1 ± 0.32 µM, 12.9 ± 0.38 µM and 7.12 ± 0.45 µM.
With `CN1CCCN(c2nc3c(c(N4CCNCC4(C)C)n2)CCN(C(=O)c2ccc(F)c4ccccc24)C3)CC1` [Compound 10e, (4-(2,2-Dimethylpiperazin-1-yl)-2-(4-methyl-1,4-diazepan-1-yl)-5,8-dihydropyrido[3,4-d]pyrimidin-7(6H)-yl)(4-fluoronaphthalen-1-yl)methanone], the IC50 in the assay on Panc1 (G12D) was above 20 µM; in the assay on A549 (WT) it was 12.8 ± 1.84 µM; with HCT116 (G13D), 11.9 ± 1.59 µM.
The corresponding values for `CCN1CCC[C@H]1CNc1nc(NC(=O)c2cccc3ccccc23)cc(N2CCNCC2)n1` [Compound 10j, (S)-N-(2-(((1-Ethylpyrrolidin-2-yl)methyl)amino)-6-(piperazin-1-yl)pyrimidin-4-yl)-1-naphthamide] are 5.96 ± 0.64 µM, above 20 µM and 14.5 ± 1.22 µM.
`COc1cccc(C(F)(F)F)c1-c1cc2c(N3CC4CCC(C3)N4)ncnc2s1` [KD-8]: the IC50 in the assay on Panc-1 was 2300 nM; in the assay with CT26 it was 2000 nM.
Consider `C#Cc1c(F)ccc2cc(O)cc(-c3ncc4c(N5CC6CCC(C5)N6)nc(OC[C@@]56CCCN5C[C@H](F)C6)nc4c3F)c12` [MRTX1133, reference compound], for which, in the assay on tumor, the tumor inhibition rate is reported as 89.1%. For the same molecule, the IC50 in the assay with AGS (G12D) was 1.46 ± 0.18 µM; in the assay with Panc 04.03 it was 10 nM; in the assay with AGS, 6 nM; in the assay on Panc1 (G12D), 0.39 ± 0.05 µM; in the assay on ASPC-1 [2] it was below 0.1 µM; in the assay on A549 (WT), 12.7 ± 0.98 µM. For the same molecule, in the assay with HCT116 (G13D), the IC50 is 12.6 ± 0.47 µM.
In the case of `CN1CCCN(c2nc3c(c(N4CCNCC4)n2)CCN(C(=O)c2ccc(F)c4ccccc24)C3)CC1` [Compound 10b, (4-Fluoronaphthalen-1-yl)(2-(4-methyl-1,4-diazepan-1-yl)-4-(piperazin-1-yl)-5,8-dihydropyrido[3,4-d]pyrimidin-7(6H)-yl)methanone], the IC50 in the assay on Panc1 (G12D) came to 5.87 ± 0.37 µM; in the assay on A549 (WT), 7.89 ± 0.17 µM; with HCT116 (G13D), 11.2 ± 0.94 µM.
Turning to `C#Cc1c(F)ccc2cc(O)cc(-c3ncc4c(N5C[C@H]6CC[C@@H](C5)N6)nc(N5CCCN(CCOCCNc6cccc7c6C(=O)N(C6CCC(=O)NC6=O)C7=O)CC5)nc4c3F)c12` (stereo partly drawn) [Compound 26a, 4-((2-(2-(4-(4-((1R,5S)-3,8-Diazabicyclo[3.2.1]octan-3-yl)-7-(8-ethynyl-7-fluoro-3-hydroxynaphthalen-1-yl)-8-fluoropyrido[4,3-d]pyrimidin-2-yl)-1,4-diazepan-1-yl)ethoxy)ethyl)amino)-2-(2,6-dioxopiperidin-3-yl)isoindoline-1,3-dione], the half-maximal inhibitory concentration (IC50) with AGS (G12D) is around 3 µM; in the assay with ASPC-1 [2] it was above 10 µM.
For `Cc1cccc2cccc(N3CCc4c(nc(N5CCCN(C)CC5)nc4N4C[C@H]5CC[C@@H](C4)N5)C3)c12` [Compound 10i, 4-((1R,5S)-3,8-Diazabicyclo[3.2.1]octan-3-yl)-2-(4-methyl-1,4-diazepan-1-yl)-7-(8-methylnaphthalen-1-yl)-5,6,7,8-tetrahydropyrido[3,4-d]pyrimidine], the values for the IC50 in the assay on Panc1 (G12D), with A549 (WT) and with HCT116 (G13D) were 3.92 ± 0.58 µM, 5.5 ± 1.35 µM and 4.51 ± 0.21 µM, respectively.
On to `CN1CCCN(c2nc3c(c(N4CCCN(C)CC4)n2)CCN(C(=O)c2ccc(F)c4ccccc24)C3)CC1` [Compound 10f, (2,4-Bis(4-methyl-1,4-diazepan-1-yl)-5,8-dihydropyrido[3,4-d]pyrimidin-7(6H)-yl)(4-fluoronaphthalen-1-yl)methanone], for which the values for the IC50 in the assay on Panc1 (G12D), in the assay on A549 (WT) and in the assay on HCT116 (G13D) were 3.48 ± 0.22 µM, above 20 µM and 10.1 ± 0.31 µM, respectively. In the assay on Panc1 (G12D), the “selectivity index (SI)” value is 5.7.
Take `C#Cc1c(F)ccc2cc(O)cc(-c3ncc4c(N5C[C@H]6CC[C@@H](C5)N6)nc(N5CCCN(C)CC5)nc4c3F)c12` [Compound 10k, 4-(4-((1R,5S)-3,8-Diazabicyclo[3.2.1]octan-3-yl)-8-fluoro-2-(4-methyl-1,4-diazepan-1-yl)pyrido[4,3-d]pyrimidin-7-yl)-5-ethynyl-6-fluoronaphthalen-2-ol]: the IC50 turned out to be 2.22 ± 0.53 µM with AGS (G12D); 9 nM against KRAS-G12D (setting [3]); 9.3 nM against KRAS-G12D (KRAS-G12D inhibitory activity IC50 (nM), Table S1); 11.5 ± 0.41 µM in the assay with Panc1 (G12D); 14.2 ± 2.15 µM in the assay on A549 (WT); 7.87 ± 0.16 µM with HCT116 (G13D).
As to `CN1CCCN(c2nc3c(c(N4[C@@H]5CC[C@H]4CNC5)n2)CCN(C(=O)c2ccc(F)c4ccccc24)C3)CC1` [Compound 10c, (4-((1R,5S)-3,8-Diazabicyclo[3.2.1]octan-8-yl)-2-(4-methyl-1,4-diazepan-1-yl)-5,8-dihydropyrido[3,4-d]pyrimidin-7(6H)-yl)(4-fluoronaphthalen-1-yl)methanone], the half-inhibitory concentration (IC50) in the assay with AGS (G12D) is 3.4 ± 0.25 µM; against KRAS-G12D (setting [3]) it was above 10000 nM; with Panc1 (G12D) it was 1.4 ± 0.19 µM; with A549 (WT), 6.88 ± 0.19 µM; in the assay with HCT116 (G13D), 5.13 ± 0.4 µM. Besides, the “selectivity index (SI)” value in the assay on Panc1 (G12D) stood at 4.9.
Consider `Cc1cccc2cccc(N3CCc4c(nc(OC[C@@H]5CCCN5C)nc4N4CC5CCC(C4)N5)C3)c12` [TH-Z835], for which the IC50 was below 500 nM with KC and below 2000 nM with Panc-1.
Take `CN1CCCN(c2nc3c(c(N4CCNCC4CO)n2)CCN(Cc2ccccc2)C3)CC1` (centres unmarked) [Compound 10h, (1-(7-Benzyl-2-(4-methyl-1,4-diazepan-1-yl)-5,6,7,8-tetrahydropyrido [3,4-d]pyrimidin-4-yl)piperazin-2-yl)methanol]: the IC50 in the assay on Panc1 (G12D), in the assay with A549 (WT) and with HCT116 (G13D) was above 20 µM in each case.
With `C#Cc1c(F)ccc2cc(O)cc(-c3ncc4c(N5C[C@H]6CC[C@@H](C5)N6)nc(N5CCCN(CCCCCC(=O)N[C@H](C(=O)N6C[C@H](O)C[C@H]6C(=O)N[C@@H](C)c6ccc(-c7scnc7C)cc6)C(C)(C)C)CC5)nc4c3F)c12` [Compound 26b, (2S,4R)-1-((S)-2-(6-(4-(4-((1R,5S)-3,8-Diazabicyclo[3.2.1]octan-3-yl)-7-(8-ethynyl-7-fluoro-3-hydroxynaphthalen-1-yl)-8-fluoropyrido[4,3-d]pyrimidin-2-yl)-1,4-diazepan-1-yl)hexanamido)-3,3-dimethylbutanoyl)-4-hydroxy-N-((S)-1-(4-(4-methylthiazol-5-yl)phenyl)ethyl)pyrrolidine-2-carboxamide], half-maximal inhibition in the assay with ASPC-1 [2] (IC50) required 5.09 ± 0.89 µM.
